Counter-ions that a name gives are not always drawn.
Test system: Acinetobacter baumannii ATCC17961
Assay: Antimicrobial susceptibility testing: 90% growth inhibitory concentration (IC90) determination, Iso-Sensitest broth
Format: cell-based
Details: Acinetobacter baumannii, ATCC17961, 90% growth inhibitory concentration, Acinetobacter baumannii ATCC17961, Iso-Sensitest broth; read-out: ATCC 17961 IC90
Summary of the method: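 Twofold serial dilutions (e.g. 10 to 0.02 μM final) were tested in Iso-Sensitest broth against ~5×10^(5) CFU/ml at 35±2 °C. OD600 was read every 20 min over 16 h. IC90 was derived from growth inhibition during the logarithmic phase.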

Compared with `COc1ccc(-c2cnc(C(=O)Nc3ccc(C(=O)N4CC(NC(=O)CN)C4)c(Cl)c3)n2C)c(F)c1F` [Example 217, N-(4-(3-(2-aminoacetamido)azetidine-1-carbonyl)-3-chlorophenyl)-5-(2,3-difluoro-4-methoxyphenyl)-1-methyl-1H-imidazole-2-carboxamide formate], `COc1ccc(-c2cnc(C(=O)Nc3ccc(C(=O)N4CC5(CNC5)C4)c(Cl)c3)n2C)c(F)c1F` [Example 42, N-[3-chloro-4-(2,6-diazaspiro[3.3]heptane-2-carbonyl)phenyl]-5-(2,3-difluoro-4-methoxy-phenyl)-1-methyl-imidazole-2-carboxamide trifluoroacetate] is 1.9-fold higher in IC90: 90 nM for the first, 170 nM for the second.

`COc1ccc(-c2cnc(C(=O)Nc3ccc(C(=O)N4CCN(C(=O)C5CCN(C(=O)CN(C)C)CC5)CC4)c(Cl)c3)n2C)c(F)c1F` [Example 120, N-[3-chloro-4-[4-[1-[2-(dimethylamino)acetyl]piperidine-4-carbonyl]piperazine-1-carbonyl]phenyl]-5-(2,3-difluoro-4-methoxy-phenyl)-1-methyl-imidazole-2-carboxamide] and `Cn1c(-c2ccc(OCF)c(F)c2F)cnc1C(=O)Nc1ccc(C(=O)N2CCN(C(=O)C3CCN(CC(N)=O)CC3)CC2)c(Cl)c1` [Example 24, N-(4-(4-(1-(2-amino-2-oxoethyl)piperidine-4-carbonyl)piperazine-1-carbonyl)-3-chlorophenyl)-5-(2,3-difluoro-4-(fluoromethoxy)phenyl)-1-methyl-1H-imidazole-2-carboxamide] are within 1.5-fold of each other in IC90: 60 nM for the first, 70 nM for the second.

Going from `COc1ccc(-c2cnc(C(=O)Nc3ccc(C(=O)N4CCC(C(=O)N[C@H]5CNC[C@@H]5O)CC4)c(Cl)c3)n2C)c(F)c1F` [Example 72, 1-[2-chloro-4-[[5-(2,3-difluoro-4-methoxy-phenyl)-1-methyl-imidazole-2-carbonyl]amino]benzoyl]-N-[(3S,4S)-4-hydroxypyrrolidin-3-yl]piperidine-4-carboxamide formate] to `COc1ccc(-c2cnc(C(=O)Nc3ccc(C(=O)N4CCC(C(=O)NC5CNC5)CC4)c(Cl)c3)n2C)c(F)c1F` [Example 250, N-(azetidin-3-yl)-1-[2-chloro-4-[[5-(2,3-difluoro-4-methoxy-phenyl)-1-methyl-imidazole-2-carbonyl]amino]benzoyl] piperidine-4-carboxamide trifluoroacetate], the IC90 rises from 50 nM to 80 nM (1.6-fold).

`Cn1c(-c2ccc(OC(F)F)c(F)c2F)cnc1C(=O)Nc1ccc(C(=O)N2CCC(C(=O)N3CC[C@@H](N)C3)CC2)c(Cl)c1` [Example 45, N-[4-[4-[(3R)-3-aminopyrrolidine-1-carbonyl]piperidine-1-carbonyl]-3-chloro-phenyl]-5-[4-(difluoromethoxy)-2,3-difluoro-phenyl]-1-methyl-imidazole-2-carboxamide trifluoroacetate] and `CN(C)C1CN(C(=O)C2CCN(C(=O)c3ccc(NC(=O)c4ncc(-c5ccc(OC(F)F)c(F)c5F)n4C)cc3Cl)CC2)C1` [Example 43, N-[3-chloro-4-[4-[3-(dimethylamino)azetidine-1-carbonyl]piperidine-1-carbonyl]phenyl]-5-[4-(difluoromethoxy)-2,3-difluoro-phenyl]-1-methyl-imidazole-2-carboxamide trifluoioacetate] are within 1.5-fold of each other in IC90: 80 nM for the first, 90 nM for the second.

Going from `CCOc1ccc(-c2cnc(C(=O)Nc3ccc(C(=O)N4CCN(C(=O)CC5(O)CCNCC5)CC4)c(Cl)c3)n2C)c(F)c1F` [Example 183, N-[3-chloro-4-[4-[2-(4-hydroxy-4-piperidyl)acetyl]piperazine-1-carbonyl]phenyl]-5-(4-ethoxy-2,3-difluoro-phenyl)-1-methyl-imidazole-2-carboxamide formate] to `Cn1c(-c2ccc(OCF)c(F)c2F)cnc1C(=O)Nc1ccc(C(=O)N2CCN(C(=O)CC3(O)CNC3)CC2)c(Cl)c1` [Example 160, N-[3-chloro-4-[4-[2-(3-hydroxyazetidin-3-yl)acetyl]piperazine-1-carbonyl]phenyl]-5-[2,3-difluoro-4-(fluoromethoxy)phenyl]-1-methyl-imidazole-2-carboxamide formate], the IC90 falls from 80 nM to 40 nM (2-fold).

`Cn1c(-c2ccc(OC(F)F)c(F)c2F)cnc1C(=O)Nc1ccc(C(=O)N2CCC(C(=O)N[C@@H]3CCNC3)CC2)c(Cl)c1` [Example 91, (R)-1-(2-chloro-4-(5-(4-(difluoromethoxy)-2,3-difluorophenyl)-1-methyl-1H-imidazole-2-carboxamido)benzoyl)-N-(pyrrolidin-3-yl)piperidine-4-carboxamide formate] and `Cn1c(-c2ccc(OC(F)F)c(F)c2F)cnc1C(=O)Nc1ccc(C(=O)N2CCC(C(=O)N[C@H]3CCNC3)CC2)c(Cl)c1` [Example 95, (S)-1-(2-chloro-4-(5-(4-(difluoromethoxy)-2,3-difluorophenyl)-1-methyl-1H-imidazole-2-carboxamido)benzoyl)-N-(pyrrolidin-3-yl)piperidine-4-carboxamide formate] are within 1.5-fold of each other in IC90: 40 nM for the first, 50 nM for the second.

`COc1ccc(-c2cnc(C(=O)Nc3ccc(C(=O)N4CCC(C(=O)N[C@H]5[C@@H]6CNC[C@@H]65)CC4)c(Cl)c3)n2C)c(F)c1F` [Example 59, N-[(1S,5R)-3-azabicyclo[3.1.0]hexan-6-yl]-1-[2-chloro-4-[[5-(2,3-difluoro-4-methoxy-phenyl)-1-methyl-imidazole-2-carbonyl]amino]benzoyl] piperidine-4-carboxamide formate] and `COc1ccc(-c2cnc(C(=O)Nc3ccc(C(=O)N4CCC(C(=O)NCC5(O)CNC5)CC4)c(Cl)c3)n2C)c(F)c1F` [Example 57, 1-[2-chloro-4-[[5-(2,3-difluoro-4-methoxy-phenyl)-1-methyl-imidazole-2-carbonyl]amino]benzoyl]-N-[(3-hydroxyazetidin-3-yl)methyl]piperidine-4-carboxamide formate] are within 1.5-fold of each other in IC90: 50 nM for the first, 60 nM for the second.

Compared with `Cn1c(-c2ccc(OCC#N)c(F)c2Cl)cnc1C(=O)Nc1ccc(C(=O)N2CCN(C(=O)[C@@H]3CCNC3)CC2)c(Cl)c1` [Example 254, 5-[2-chloro-4-(cyanomethoxy)-3-fluoro-phenyl]-N-[3-chloro-4-[4-[(3R)-pyrrolidine-3-carbonyl]piperazine-1-carbonyl]phenyl]-1-methyl-imidazole-2-carboxamide formate], `Cn1c(-c2ccc(OCC#N)c(Cl)c2F)cnc1C(=O)Nc1ccc(C(=O)N2CCN(C(=O)C3CCNCC3)CC2)c(Cl)c1` [Example 268, 5-[3-chloro-4-(cyanomethoxy)-2-fluoro-phenyl]-N-[3-chloro-4-[4-(piperidine-4-carbonyl)piperazine-1-carbonyl]phenyl]-1-methyl-imidazole-2-carboxamide] is 1.8-fold higher in IC90: 40 nM for the first, 70 nM for the second.

`Cn1c(-c2ccc(OCC#N)c(F)c2F)cnc1C(=O)Nc1ccc(C(=O)N2CCN(C(=O)C3CNCC(O)C3)CC2)c(Cl)c1` (stereo not drawn) [Example 214, N-(3-chloro-4-(4-(5-hydroxypiperidine-3-carbonyl)piperazine-1-carbonyl)phenyl)-5-(4-(cyanomethoxy)-2,3-difluorophenyl)-1-methyl-1H-imidazole-2-carboxamide 2,2,2-trifluoroacetate] and `Cn1c(-c2ccc(OCC#N)c(F)c2F)cnc1C(=O)Nc1ccc(C(=O)N2CCN(CCN)CC2)c(Cl)c1` [Example 19, N-[4-[4-(2-aminoethyl)piperazine-1-carbonyl]-3-chloro-phenyl]-5-[4-(cyanomethoxy)-2,3-difluoro-phenyl]-1-methyl-imidazole-2-carboxamide trifluoroacetate] are within 1.5-fold of each other in IC90: 70 nM for the first, 60 nM for the second.

Compared with `Cn1c(-c2ccc(OC(F)F)cc2F)cnc1C(=O)Nc1ccc(C(=O)N2CCN(C(=O)C[C@@H]3CCCN3)CC2)c(Cl)c1` [Example 159, N-[3-chloro-4-[4-[2-[(2S)-pyrrolidin-2-yl]acetyl]piperazine-1-carbonyl]phenyl]-5-[4-(difluoromethoxy)-2-fluoro-phenyl]-1-methyl-imidazole-2-carboxamide formate], `CN(C)CC(=O)N1CCN(C(=O)c2ccc(NC(=O)c3ncc(-c4ccc(OCF)c(F)c4F)n3C)cc2Cl)CC1` [Example 220, N-(3-chloro-4-(4-(dimethylglycyl)piperazine-1-carbonyl)phenyl)-5-(2,3-difluoro-4-(fluoromethoxy)phenyl)-1-methyl-1H-imidazole-2-carboxamide formate] is 1.8-fold lower in IC90: 70 nM for the first, 40 nM for the second.

For `COc1ccc(-c2cnc(C(=O)Nc3ccc(C(=O)N4CCC(NC(=O)C5CCNCC5)C4)c(Cl)c3)n2C)c(F)c1F` (stereo not drawn) [Example 110, N-[1-[2-chloro-4-[[5-(2,3-difluoro-4-methoxy-phenyl)-1-methyl-imidazole-2-carbonyl]amino]benzoyl]pyrrolidin-3-yl]piperidine-4-carboxamide formate], the IC90 was 180 nM.

Same assay, conditions: Acinetobacter baumannii, ATCC17961, read-out: ATCC 17961 IC90

First: Cn1c(-c2ccc(OCC#N)c(F)c2F)cnc1C(=O)Nc1ccc(C(=O)N2CCC(C(=O)N3CCN[C@H](CO)C3)CC2)c(Cl)c1 [Example 86, (S)-N-(3-ehloro-4-(4-(3-(hydroxymethyl)piperazine-1-carbonyl)piperidine-1-carbonyl)phenyl)-5-(4-(cyanomethoxy)-2,3-difluorophenyl)-1-methyl-1H-imidazole-2-carboxamide 2,2,2-trifluoroacetate]
Second: COc1ccc(-c2cnc(C(=O)Nc3ccc(C(=O)N4CCC(C(=O)N[C@@H](C)CN)CC4)c(Cl)c3)n2C)c(F)c1F [Example 28, N-[(1S)-2-Amino-1-methyl-ethyl]-1-[2-chloro-4-[[5-(2,3-difluoro-4-methoxy-phenyl)-1-methyl-imidazole-2-carbonyl]amino]benzoyl]piperidine-4-carboxamide trifluoroacetate]
The IC90 of the first is 1.7-fold lower: 100 nM for the first, 170 nM for the second.

`COc1ccc(-c2cnc(C(=O)Nc3ccc(C(=O)N4CCC(CCN)CC4)c(Cl)c3)n2C)c(F)c1F` [Example 17, N-[4-[4-(2-Aminoethyl)piperidine-1-carbonyl]-3-chloro-phenyl]-5-(2,3-difluoro-4-methoxy-phenyl)-1-methyl-imidazole-2-carboxamide formate] showed an IC90 of 30 nM.

From patent publication US20220396565A1 (Hoffmann-La Roche Inc., priority 2020, published 2022)
